{
  "source": "paper PMC5789640",
  "about": "“Depletion of Arabidopsis ACYL-COA-BINDING PROTEIN3 Affects Fatty Acid Composition in the Phloem” (Frontiers in Plant Science, 2018)",
  "data": [
    {"target": "T1, (His)6-AtACBP3 (Arabidopsis thaliana, UniProt Q9STX1)", "T1 construct": "gene ACBP3; plasmid pAT223, E. coli BL21(DE3) pLysS", "T1 sequence (Q9STX1 23-362)": "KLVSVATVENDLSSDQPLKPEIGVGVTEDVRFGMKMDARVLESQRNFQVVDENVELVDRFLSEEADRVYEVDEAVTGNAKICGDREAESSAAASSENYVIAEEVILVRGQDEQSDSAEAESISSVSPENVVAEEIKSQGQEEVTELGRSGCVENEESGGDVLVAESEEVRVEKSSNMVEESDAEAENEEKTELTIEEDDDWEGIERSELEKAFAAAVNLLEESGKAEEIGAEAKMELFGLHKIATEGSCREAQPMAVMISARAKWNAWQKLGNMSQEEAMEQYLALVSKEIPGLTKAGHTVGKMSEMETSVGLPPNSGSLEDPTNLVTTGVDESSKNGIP", "test": "isothermal titration calorimetry", "type": "binding", "excerpt": "isothermal titration calorimetry on (His)6-AtACBP3", "units": {"Kd": "µM"}, "values": [
      {"smiles": "CCCCCCCCCCCC(=O)SCCNC(=O)CCNC(=O)[C@H](O)C(C)(C)COP(=O)(O)OP(=O)(O)OC[C@H]1O[C@@H](n2cnc3c(N)ncnc32)[C@H](O)[C@@H]1OP(=O)(O)O", "note": "[C12:0-CoA ester]", "Kd": "33.1 ± 13"},
      {"smiles": "CCCCCCCCCCCCCC(=O)SCCNC(=O)CCNC(=O)[C@H](O)C(C)(C)COP(=O)(O)OP(=O)(O)OC[C@H]1O[C@@H](n2cnc3c(N)ncnc32)[C@H](O)[C@@H]1OP(=O)(O)O", "note": "[C14:0-CoA ester]", "Kd": "4 ± 0.6"},
      {"smiles": "CCCCCC/C=C\\CCCCCCCC(=O)SCCNC(=O)CCNC(=O)[C@H](O)C(C)(C)COP(=O)(O)OP(=O)(O)OC[C@H]1O[C@@H](n2cnc3c(N)ncnc32)[C@H](O)[C@@H]1OP(=O)(O)O", "note": "[C16:1-CoA ester]", "Kd": "5.1 ± 1.9"},
      {"smiles": "CCCCCCCCCCCCCCCCC(=O)SCCNC(=O)CCNC(=O)[C@H](O)C(C)(C)COP(=O)(O)OP(=O)(O)OC[C@H]1O[C@@H](n2cnc3c(N)ncnc32)[C@H](O)[C@@H]1OP(=O)(O)O", "note": "[C17:0-CoA ester]", "Kd": "21 ± 4.7"},
      {"smiles": "CCCCC/C=C\\C/C=C\\CCCCCCCC(=O)SCCNC(=O)CCNC(=O)[C@H](O)C(C)(C)COP(=O)(O)OP(=O)(O)OC[C@H]1O[C@@H](n2cnc3c(N)ncnc32)[C@H](O)[C@@H]1OP(=O)(O)O", "note": "[C18:2-CoA ester]", "Kd": "13.4 ± 1.4"},
      {"smiles": "CC/C=C\\C/C=C\\C/C=C\\CCCCCCCC(=O)SCCNC(=O)CCNC(=O)[C@H](O)C(C)(C)COP(=O)(O)OP(=O)(O)OC[C@H]1O[C@@H](n2cnc3c(N)ncnc32)[C@H](O)[C@@H]1OP(=O)(O)O", "note": "[C18:3-CoA ester]", "Kd": "8.6 ± 2"}
    ]}
  ]
}
